Source: patent US20160045513A1, “ISOXAZOLE COMPOUND FOR THE TREATMENT OF CANCER” (Novartis AG, priority 2007, published 2016)

Assays:
[1] = tested on: CA20948 xenograft; assay: antitumor effect in the rat pancreatic cancer model CA20948; format: in vivo; conditions: for T/C (%) / ΔTumor volume (mm^3): qw; for ΔTumor volume (mm^3): mean ±SEM, *P < 0.05
Experimental: The transplantable rat pancreatic tumor CA20948 is serially passaged as cell homogenates in male syngeneic Lewis rats. The injection site is subcutaneously on the right flank. […] Tumor growth is monitored at regular intervals. The xenograft tumor sizes is measured manually with calipers and the tumor volume is estimated using the formula: (W×L^2×π/6), where width (W) and height (H) are the two largest diameters. Results are presented as mean ±SEM. Tumor data were analyzed by ANOVA with post hoc Dunnet's test for comparison of treatment versus control group. As a measure of efficacy the % T/C value is calculated at the end of the experiment according to: (Δtumor volumetreated/Δtumor volumecontrol)*100 where Δtumor volumes represent the mean tumor volume on the evaluation day minus the mean tumor volume at the start of the experiment. The antitumor effect of AUY922 is evaluated in the CA20948 xenograft model. Each group consisted of six tumor bearing animals. At the end of the study, the tumor sizes in the treatment groups are compared to those of the vehicle treated groups and the effect is expressed as % T/C.

[2] = tested on: BN472 xenograft; assay: antitumor effect in the rat breast cancer model BN-472; format: in vivo; conditions: for T/C (%) / ΔTumor volume (mm^3): qw, i.v.; for ΔTumor volume (mm^3): mean ±SEM
Experimental: The transplantable rat breast cancer tumor BN472 is serially passaged as fragments in female syngeneic Brown Norway rats. The injection site is orthotopically in the mammary fat pad. Treatment with AUY922 is initiated when the average tumor volume reaches approximately 100 mm^3. Tumor growth is monitored at regular intervals. The xenograft tumor sizes are measured manually with calipers and the tumor volume is estimated using the formula: (W×L^2×π/6), where width (W) and height (H) are the two largest diameters. Results are presented as mean ±SEM. Tumor data were analyzed by ANOVA with post hoc Dunnet's test for comparison of treatment versus control group. As a measure of efficacy the % T/C value is calculated at the end of the experiment according to: (Δtumor volumetreated/Δtumor volumecontrol)*100 where Δtumor volumes represent the mean tumor volume on the evaluation day minus the mean tumor volume at the start of the experiment. The antitumor effect of AUY922 is evaluated in the BN472 xenograft model. Each group consists of seven tumor bearing animals. At the end of the study, the tumor sizes in the treatment groups are compared to those of the vehicle treated groups and the effect is expressed as %T/C.

[3] = tested on: HT29; assay: cell proliferation, tumor derived cell lines; format: cell-based; conditions: Homo sapiens, HT-29, Colon, 72 or 96 hours exposure
Experimental: (§1) Thirty-seven cancer derived cell lines are used (BT474, MDA-MB-361, MDA-MB-453, SKBr3, T47D, MCF7, MDA-MB-231, MDA-MB-468, SK-MEL-5, A375, MALME-3M, SK-MEL-28, WM266.4, RPMI8226, U266, BE, Colo205, HCT116, HT29, MAWI, RKO, U87MG, HN5, RPMI-8226, A549, MV522, NCI-H1299, NCI-H460, 41M, A2780, CHI, NCI-N87, SKOV3, PC3, MO7e, GIST882 and Baf3) to test the effect of 5-(2,4-Dihydroxy-5-isopropyl-phenyl)-4-(4-morpholin-4-ylmethyl-phenyl)-isoxazole-3-carboxylic acid ethylamide. Cell lines are commercially available from American Type Culture Collection (ATCC). These cell lines cover the following 12 cancer or tumor types: breast, melanoma, multiple myeloma (MM), colon, glioblastoma, head & neck, leukemia, lung, ovarian, prostate, stomach and gastrointestinal stromal tumour (GIST). After division and medium change, cells from stock culture are seeded on cell plates and cultured for about 18 hours to allow cell growth and attachment before starting the assay. On the first day of the assay, 5-(2,4-Dihydroxy-5-isopropyl-phenyl)-4-(4-morpholin-4-ylmethyl-phenyl)-isoxazole-3-carboxylic acid ethylamide is added to the medium at various concentrations up to […]. Cells are cultured up to 72 or 96 hours and cell proliferation is determined using commercially available cell proliferation kits.
(§2) The cells were continually exposed to 5-(2,4-Dihydroxy-5-isopropyl-phenyl)-4-(4-morpholin-4-ylmethyl-phenyl)-isoxazole-3-carboxylic acid ethylamide for either 72 or 96 hours and cell growth was determined by commercially available kits based on either SRB, Alamar blue, methylene blue or WST-1 methods.

[4] = tested on: SKOV3; assay: cell proliferation, tumor derived cell lines; format: cell-based; conditions: Homo sapiens, SK-OV-3, Ovarian, 72 or 96 hours exposure
Experimental: as §1, §2

[5] = tested on: HN5; assay: cell proliferation, tumor derived cell lines; format: cell-based; conditions: Homo sapiens, Head & Neck, 72 or 96 hours exposure
Experimental: as §1, §2

[6] = tested on: MDA-MB-361; assay: cell proliferation, tumor derived cell lines; format: cell-based; conditions: Homo sapiens, Breast, 72 or 96 hours exposure
Experimental: as §1, §2

[7] = tested on: MCF7; assay: cell proliferation, tumor derived cell lines; format: cell-based; conditions: Homo sapiens, Breast, 72 or 96 hours exposure
Experimental: as §1, §2

[8] = tested on: GIST882; assay: cell proliferation, tumor derived cell lines; format: cell-based; conditions: Homo sapiens, Gastrointestinal stromal tumour (GIST), 72 or 96 hours exposure
Experimental: as §1, §2

[9] = tested on: MALME-3M; assay: cell proliferation, tumor derived cell lines; format: cell-based; conditions: Homo sapiens, Melanoma, 72 or 96 hours exposure
Experimental: as §1, §2

[10] = tested on: PC3; assay: cell proliferation, tumor derived cell lines; format: cell-based; conditions: Homo sapiens, PC-3, Prostate, 72 or 96 hours exposure
Experimental: as §1, §2

[11] = tested on: BE; assay: cell proliferation, tumor derived cell lines; format: cell-based; conditions: Colon, 72 or 96 hours exposure
Experimental: as §1, §2

[12] = tested on: RPMI-8226; assay: cell proliferation, tumor derived cell lines; format: cell-based; conditions: Homo sapiens, Leukemia, 72 or 96 hours exposure
Experimental: as §1, §2

[13] = tested on: MDA-MB-468; assay: cell proliferation, tumor derived cell lines; format: cell-based; conditions: Homo sapiens, Breast, 72 or 96 hours exposure
Experimental: as §1, §2

[14] = tested on: SKBr3; assay: cell proliferation, tumor derived cell lines; format: cell-based; conditions: Homo sapiens, SK-BR-3, Breast, 72 or 96 hours exposure
Experimental: as §1, §2

[15] = tested on: MO7e; assay: cell proliferation, tumor derived cell lines; format: cell-based; conditions: 72 or 96 hours exposure
Experimental: as §1, §2

[16] = tested on: A375; assay: cell proliferation, tumor derived cell lines; format: cell-based; conditions: Homo sapiens, A-375, Melanoma, 72 or 96 hours exposure
Experimental: as §1, §2

[17] = tested on: MV522; assay: cell proliferation, tumor derived cell lines; format: cell-based; conditions: Lung, 72 or 96 hours exposure
Experimental: as §1, §2

[18] = tested on: MAWI; assay: cell proliferation, tumor derived cell lines; format: cell-based; conditions: Colon, 72 or 96 hours exposure
Experimental: as §1, §2

IC50 [3]: 30 nM
IC50 [4]: 3.7 nM
IC50 [5]: 8 nM
IC50 [6]: 6 nM
IC50 [7]: 2.3 nM
IC50 [8]: 6.2 nM
IC50 [9]: 7.7 nM
IC50 [10]: 5 nM
IC50 [11]: 2.8 nM
IC50 [12]: 6.3 nM
IC50 [13]: 3.5 nM
IC50 [14]: 2.3 nM
IC50 [15]: 10.6 nM
IC50 [16]: 3 nM
IC50 [17]: 8.1 nM
IC50 [18]: 50 nM
Structure (SMILES): CCNC(=O)c1noc(-c2cc(C(C)C)c(O)cc2O)c1-c1ccc(CN2CCOCC2)cc1 [AUY922, 5-(2,4-Dihydroxy-5-isopropyl-phenyl)-4-(4-morpholin-4-ylmethyl-phenyl)-isoxazole-3-carboxylic acid ethylamide]
T/C (%) ([1]; 50 mg/kg, i.v.): 30%
ΔTumor volume (mm^3) ([1]; 50 mg/kg, i.v.): 7090 ± 2553* mm^3
T/C (%) ([1]; 75 mg/kg, i.v): 21%
ΔTumor volume (mm^3) ([1]; 75 mg/kg, i.v): 4796 ± 1354* mm^3
reduction of tumor sizes versus vehicle ([1]; once per week at 50 and 75 mg/kg): Statistically significant reduction of tumor sizes
T/C (%) ([2]; 25 mg/kg): 78%
ΔTumor volume (mm^3) ([2]; 25 mg/kg): 4357 ± 1338 mm^3
T/C (%) ([2]; 50 mg/kg): 21%
ΔTumor volume (mm^3) ([2]; 50 mg/kg, *P < 0.05): 1148 ± 152* mm^3
reduction of tumor sizes versus vehicle ([2]; once per week at 50 mg/kg): Statistically significant reduction of tumor sizes
